Data on 29 compounds can be found in patent US7101886B2, “Phenylalkyl and pyridylalkyl piperazine derivatives” (Warner Lambert Company, priority 2002, dated 2006).

For one data set, the target named is T1, dopamine D2 receptor (Homo sapiens, UniProt P14416).
T1 construct: expressed in transfected cells; host or cells: CHO cells (CHO-hD2L), membrane preparation
T1 sequence (P14416 whole entry): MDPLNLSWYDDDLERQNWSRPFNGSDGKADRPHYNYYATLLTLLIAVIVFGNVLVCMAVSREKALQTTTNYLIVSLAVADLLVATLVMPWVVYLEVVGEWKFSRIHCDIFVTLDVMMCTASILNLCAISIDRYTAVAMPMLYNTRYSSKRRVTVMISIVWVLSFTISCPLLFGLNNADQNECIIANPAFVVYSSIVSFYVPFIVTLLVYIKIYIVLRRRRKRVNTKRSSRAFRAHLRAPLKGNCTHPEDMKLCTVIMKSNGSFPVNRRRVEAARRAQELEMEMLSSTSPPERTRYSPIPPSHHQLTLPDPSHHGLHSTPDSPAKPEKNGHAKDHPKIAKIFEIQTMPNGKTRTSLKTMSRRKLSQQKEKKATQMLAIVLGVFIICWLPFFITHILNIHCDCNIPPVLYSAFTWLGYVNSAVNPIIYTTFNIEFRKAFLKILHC
Nature of the data set: Dopamine D2 receptor binding ([3H]spiperone radioligand binding). Conditions: [3H]spiperone binding, membrane preparation from CHO-hD2L cells. The text has this: (§1) The ability of the compounds of this invention to bind to the dopamine D2 and serotonin 2A (5HT2A) receptors can be determined using conventional radioligand receptor binding assays. All receptors can be heterologously expressed in cell lines and experiments conducted in membrane preparations from the cell lines using procedures outlined below. IC50 concentrations can be determined by nonlinear regression of concentration-dependent reduction in specific binding. The Cheng-Prussoff equation can be used to convert the IC50 to Ki concentrations.
Dopamine D2 Receptor Binding:
[^3H]Spiperone binding to a membrane preparation from CHO-hD2L cells is carried out in 250 μl of 50 mM Tris-HCl buffer containing 100 mM NaCl, 1 mM MgCl2 and 1% DMSO at pH 7.4. Duplicate samples containing (in order of addition) the test compounds, 0.4 nM [^3H]spiperone and approximately 12 μg protein are incubated for 120 minutes at room temperature. Bound radioligand is separated by rapid filtration under reduced pressure through Whatman GF/B glass fiber filters previously treated with 0.3% polyethyleneimine. Radioactivity retained on the filter is determined by liquid scintillation spectrophotometry.
The title compounds of Examples 1–524 were tested using the above assay, in which specific binding determined in the presence of 1 mM haloperidol was 95%.
For `COc1cccc(S(=O)(=O)Nc2ccc(CCN3CCN(c4nsc5ccccc45)CC3)cc2)c1` [Example 364, N-{4-[2-(4-1,2-BENZISOTHIAZOL-3-YL-PIPERAZIN-1-YL)-ETHYL]-PHENYL}-3-METHOXY-BENZENESULFONAMIDE], the Ki (commonly a measure of affinity in units of concentration, obtained from inhibition or displacement) was 8.58 nM.

`Cc1cc(C(=O)Nc2ccc(CCN3CCN(c4nsc5ccccc45)CC3)cc2)n(C)n1` [Example 102, 2,5-DIMETHYL-2H-PYRAZOLE-3-CARBOXYLIC ACID {4-[2-(4-1,2-BENZISOTHIAZOL-3-YL-PIPERAZIN-1-YL)-ETHYL]-PHENYL}-AMIDE]: the Ki worked out at 8.2 nM.

`Cc1cc(C(=O)Nc2ccc(CCN3CCN(c4nsc5ccccc45)CC3)cc2)c(C)o1` [Example 27, 2,5-DIMETHYL-FURAN-3-CARBOXYLIC ACID {4-[2-(4-1,2-BENZISOTHIAZOL-3-YL-PIPERAZIN-1-YL)-ETHYL]-PHENYL}-AMIDE]: the Ki came to 6.32 nM.

In a further data set the target is T2, serotonin 2A (5HT2A) receptor (Homo sapiens, UniProt P28223).
T2 construct: expressed in transfected cells; host or cells: Swiss cells (Swiss-h5HT2A)
T2 sequence (P28223 whole entry): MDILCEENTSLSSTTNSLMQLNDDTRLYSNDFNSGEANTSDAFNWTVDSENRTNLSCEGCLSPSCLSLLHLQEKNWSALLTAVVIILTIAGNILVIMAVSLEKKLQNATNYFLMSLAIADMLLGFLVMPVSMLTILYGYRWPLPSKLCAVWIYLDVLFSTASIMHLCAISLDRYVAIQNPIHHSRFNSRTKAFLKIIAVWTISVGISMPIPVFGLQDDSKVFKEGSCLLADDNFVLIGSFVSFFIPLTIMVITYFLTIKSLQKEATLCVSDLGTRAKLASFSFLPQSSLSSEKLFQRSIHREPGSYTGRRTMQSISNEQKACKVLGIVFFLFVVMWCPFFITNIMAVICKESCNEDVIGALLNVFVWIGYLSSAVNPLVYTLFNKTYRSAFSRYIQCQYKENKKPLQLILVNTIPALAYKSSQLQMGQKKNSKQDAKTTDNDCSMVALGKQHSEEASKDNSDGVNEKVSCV
Nature of the data set: Serotonin 2A binding ([3H]ketanserin radioligand binding). To be noted: [3H]ketanserin binding, Swiss-h5HT2A cell membranes.
Description: as §1
[^3H] Ketanserin binding to Swiss-h5HT2A cell membranes can be carried out in 250 μl of 50 mM Tris-HCl buffer pH 7.4. Duplicate samples containing (in order of addition) test compounds, 1.0 nM [^3H]ketanserin, and approximately 75 μg protein are incubated for 120 minutes at room temperature. Bound radioligand is separated by rapid filtration under reduced pressure through Whatman GF/B glass fiber filters previously treated with 0.3% polyethyleneimine. Radioactivity retained on the filter is determined by liquid scintillation spectrophotometry.
The title compounds of Examples 1–524 were tested using the above assay, in which specific binding determined in the presence of 1 mM ketanserin was 90%.
Consider `COc1cccc(S(=O)(=O)Nc2ccc(CCN3CCN(c4nsc5ccccc45)CC3)cc2)c1` [Example 364, N-{4-[2-(4-1,2-BENZISOTHIAZOL-3-YL-PIPERAZIN-1-YL)-ETHYL]-PHENYL}-3-METHOXY-BENZENESULFONAMIDE], for which the Ki is 0.29 nM.

The compound `Cc1cc(C(=O)Nc2ccc(CCN3CCN(c4nsc5ccccc45)CC3)cc2)n(C)n1` [Example 102, 2,5-DIMETHYL-2H-PYRAZOLE-3-CARBOXYLIC ACID {4-[2-(4-1,2-BENZISOTHIAZOL-3-YL-PIPERAZIN-1-YL)-ETHYL]-PHENYL}-AMIDE] came in with an inhibitory constant (Ki) of 0.25 nM.

Regarding `Cc1cc(C(=O)Nc2ccc(CCN3CCN(c4nsc5ccccc45)CC3)cc2)c(C)o1` [Example 27, 2,5-DIMETHYL-FURAN-3-CARBOXYLIC ACID {4-[2-(4-1,2-BENZISOTHIAZOL-3-YL-PIPERAZIN-1-YL)-ETHYL]-PHENYL}-AMIDE], the inhibition constant (Ki) amounted to 1.46 nM.

Test system in the next data set: not given
Assay: not given
Settings: not given
For `CC(=O)OC(C)C(=O)Nc1ccc(OCCN2CCN(c3nsc4ccccc34)CC2)cc1` (centres unmarked), the melting point (in general, the temperature of the solid-liquid transition) was found to be 90 °C.

For the compound `O=C1c2ccccc2CN1c1cccc(CCN2CCN(c3nsc4ccccc34)CC2)c1` [Example 528, 2-{3-[2-(4-BENZO[D]ISOTHIAZOL-3-YL-PIPERAZIN-1-YL)-ETHYL]-PHENYL}-2,3-DIHYDRO-ISOINDOL-1-ONE], the melting point lay within 154.5 to 155.3 °C.

The compound `COc1cc(CCN2CCN(c3nsc4ccccc34)CC2)c(NC(=O)NC2CCCCC2)cc1OC` [Example 63, 1-{2-[2-(4-1,2-BENZISOTHIAZOL-3-YL-PIPERAZIN-1-YL)-ETHYL]-4,5-DIMETHOXY-PHENYL}-3-CYCLOHEXYL-UREA] displayed a melting point of 156 °C.

For the compound `COc1cc(CCN2CCN(c3nsc4ccccc34)CC2)c(NC(=O)Nc2ccc(F)cc2)cc1OC` [Example 62, 1-{2-[2-(4-1,2-BENZISOTHIAZOL-3-YL-PIPERAZIN-1-YL)-ETHYL]-4,5-DIMETHOXY-PHENYL}-3-(4-FLUORO-PHENYL)-UREA], the melting point turned out to be 211 °C.

In the case of `CC(=O)Nc1ccc(S(=O)(=O)Nc2ccc(OCCN3CCN(c4nsc5ccccc45)CC3)cc2)cc1`, the melting point was found to be 120 °C.

As to `O=C1c2ccccc2CN1c1ccc(CCN2CCN(c3nsc4ccccc34)CC2)cc1` [Example 527, 2-{4-[2-(4-BENZO[D]ISOTHIAZOL-3-YL-PIPERAZIN-1-YL)-ETHYL]-PHENYL}-2,3-DIHYDRO-ISOINDOL-1-ONE], the melting point was determined as 175.9 °C.

`O=C1c2ccccc2CN1c1ccccc1CCN1CCN(c2nsc3ccccc23)CC1` [Example 529, 2-{2-[2-(4-BENZO[D]ISOTHIAZOL-3-YL-PIPERAZIN-1-YL)-ETHYL]-PHENYL}-2,3-DIHYDRO-ISOINDOL-1-ONE] gave a melting point of 207.6 to 208 °C.

With `COc1cc(CCN2CCN(c3nsc4ccccc34)CC2)c(NC(=O)C=C(C)C)cc1OC` [Example 65, 3-M ETHYL-BUT-2-ENOIC ACID {2-[2-(4-1,2-BENZISOTHIAZOL-3-YL-PIPERAZIN-1-YL)-ETHYL]-4,5-DIMETHOXY-PHENYL}-AMIDE], the melting point was 58 °C.

`Cc1nn(C)c(Cl)c1S(=O)(=O)Nc1ccc(OCCN2CCN(c3nsc4ccccc34)CC2)cc1` returned a melting point of 85 °C.

Compound `COc1cc(CCN2CCN(c3nsc4ccccc34)CC2)c(NS(=O)(=O)c2ccccc2F)cc1OC` [Example 56, N-{2-[2-(4-1,2-BENZISOTHIAZOL-3-YL-PIPERAZIN-1-YL)-ETHYL]-4,5-DIMETHOXY-PHENYL}-2-FLUORO-BENZENESULFONAMIDE] showed a melting point of 167 °C.

As to `O=C1c2ccccc2CN1c1ccc(OCCN2CCN(c3nsc4ccccc34)CC2)cc1` [Example 530, 2-{4-[2-(4-BENZO[D]ISOTHIAZOL-3-YL-PIPERAZIN-1-YL)-ETHOXY]-PHENYL}-2,3-DIHYDRO-ISOINDOL-1-ONE], the melting point fell in the range of 166.4 to 166.6 °C.

Compound `COc1cc(CCN2CCN(c3nsc4ccccc34)CC2)c(NC(=O)Nc2c(C)cccc2C)cc1OC` showed a melting point of 96 °C.

As for `O=C(Cc1cccs1)Nc1ccc(OCCN2CCN(c3nsc4ccccc34)CC2)cc1`, the melting point is 142 °C.

Turning to `CC(C)=CC(=O)Nc1ccc(F)cc1CCN1CCN(c2nsc3ccccc23)CC1` [Example 64, 3-METHYL-BUT-2-ENOIC ACID {2-[2-(4-1,2-BENZISOTHIAZOL-3-YL-PIPERAZIN-1-YL)-ETHYL]-4-FLUORO-PHENYL}-AMIDE], the melting point worked out at 175 °C.

`COc1cc(CCN2CCN(c3nsc4ccccc34)CC2)c(NC(=O)Cc2cccs2)cc1OC` gave a melting point of 135 °C.

As to `COc1cc(CCN2CCN(c3nsc4ccccc34)CC2)c(NC(=O)Cc2ccc(Cl)cc2)cc1OC`, the melting point amounted to 152 °C.

As for `COc1cc(CCN2CCN(c3nsc4ccccc34)CC2)c(NC(C)=O)cc1OC`, the melting point was found to be 120 °C.

In the case of `COc1cc(CCN2CCN(c3nsc4ccccc34)CC2)c(NS(=O)(=O)c2cn(C)c(C)n2)cc1OC`, the melting point was 233 °C.

Take `COc1cc(CCN2CCN(c3nsc4ccccc34)CC2)c(NC(=O)Cc2ccccc2)cc1OC`: the melting point came to 142 °C.

Consider `CC(C)=CC(=O)Nc1ccccc1CCN1CCN(c2nsc3ccccc23)CC1` [Example 50, 3-METHYL-BUT-2-ENOIC ACID {2-[2-(4-1,2-BENZISOTHIAZOL-3-YL-PIPERAZIN-1-YL)-ETHYL]-PHENYL}-AMIDE], for which the melting point worked out at 52 °C.

Compound `COc1cc(CCN2CCN(c3nsc4ccccc34)CC2)c(NS(=O)(=O)c2ccccc2C)cc1OC` [Example 58, N-{2-[2-(4-1,2-BENZISOTHIAZOL-3-YL-PIPERAZIN-1-YL)-ETHYL]-4,5-DIMETHOXY-PHENYL}-2-METHYL-BENZENESULFONAMIDE] showed a melting point of 187 °C.

The compound `Cn1cnc(S(=O)(=O)Nc2ccc(OCCN3CCN(c4nsc5ccccc45)CC3)cc2)c1` [Example 44, 1-METHYL-1H-IMIDAZOLE-4-SULFONIC ACID {4-[2-(4-1,2-BENZISOTHIAZOL-3-YL-PIPERAZIN-1-YL)-ETHOXY]-PHENYL}-AMIDE] came in with a melting point of 176 °C.

In turn, `COc1ccc(OC)c(S(=O)(=O)Nc2ccc(OCCN3CCN(c4nsc5ccccc45)CC3)cc2)c1` [Example 46, N-{4-[2-(4-1,2-BENZISOTHIAZOL-3-YL-PIPERAZIN-1-YL)-ETHOXY]-PHENYL}-2,5-DIMETHOXY-BENZENESULFONAMIDE] gave a melting point of 78 °C.

As to `COc1cc(CCN2CCN(c3nsc4ccccc34)CC2)c(NS(=O)(=O)c2c(C)nn(C)c2C)cc1OC`, the melting point stood at 196 °C.

Consider `O=S(=O)(Nc1ccc(OCCN2CCN(c3nsc4ccccc34)CC2)cc1)c1ccccc1` [Example 47, N-{4-[2-(4-1,2-BENZISOTHIAZOL-3-YL-PIPERAZIN-1-YL)-ETHOXY]-PHENYL}-BENZENESULFONAMIDE], for which the melting point was 65 °C.

Compound `Cc1nc(S(=O)(=O)Nc2ccc(OCCN3CCN(c4nsc5ccccc45)CC3)cc2)cn1C` gave a melting point of 227 °C.
